Target: Programmed cell death protein 1/Programmed cell death 1 ligand 1 (Homo sapiens, UniProt Q15116+Q9NZQ7)
Assay: Inhibitory Activity Assay: 1. In vitro activity evaluation: Cisbio PD-1/PD-L1 binding assay kit was applied for the detection method of in vitro enzymology level.Screening Principles and Methods of PD-1/PD-L1 Small Molecule Inhibitors1) Principle: PD-1 protein is with HIS tag, and PD-1 ligand PD-L1 is with hFc tag. Eu labeled anti-hFc antibody and XL665 labeled anti-HIS antibody are combined with the above two label proteins respectively. After laser excitation, energy can be transferred from donor Eu to receptor XL665, allowing XL665 to glow. […] Reagents should be dispensed in the following order. For 384-well white ELISA plate, 2 μl of diluent or target compound diluted with diluent was added to each well, and then 4 μl of PD-1 protein and 4 μl of PD-L1 protein were added per well, incubated for 15 min at room temperature; and 10 μl of a mixture of anti-Tag1-Eu3+ and anti-Tag2-XL665 was added per well and incubated for 1 h to 4 h at room temperature and the fluorescence signals at 665 nm and 620 nm were measured with an Envison instrument. HTRF rate=(665 nm/620 nm)*104. 8-10 concentrations were detected for each compound and IC50 was calculated by Graphpad software.
Assay type: protein-complex assay

Sequence of Programmed cell death protein 1/Programmed cell death 1 ligand 1 (Q15116 whole entry): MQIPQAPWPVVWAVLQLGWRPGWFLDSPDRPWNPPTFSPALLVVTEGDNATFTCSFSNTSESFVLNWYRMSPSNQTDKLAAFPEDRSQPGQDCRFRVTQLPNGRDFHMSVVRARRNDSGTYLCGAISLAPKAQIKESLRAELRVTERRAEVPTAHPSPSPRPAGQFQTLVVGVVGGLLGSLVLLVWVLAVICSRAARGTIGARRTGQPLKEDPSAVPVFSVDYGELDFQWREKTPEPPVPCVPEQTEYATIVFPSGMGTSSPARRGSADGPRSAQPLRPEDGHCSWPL
Sequence of Programmed cell death protein 1/Programmed cell death 1 ligand 1 (Q9NZQ7 whole entry): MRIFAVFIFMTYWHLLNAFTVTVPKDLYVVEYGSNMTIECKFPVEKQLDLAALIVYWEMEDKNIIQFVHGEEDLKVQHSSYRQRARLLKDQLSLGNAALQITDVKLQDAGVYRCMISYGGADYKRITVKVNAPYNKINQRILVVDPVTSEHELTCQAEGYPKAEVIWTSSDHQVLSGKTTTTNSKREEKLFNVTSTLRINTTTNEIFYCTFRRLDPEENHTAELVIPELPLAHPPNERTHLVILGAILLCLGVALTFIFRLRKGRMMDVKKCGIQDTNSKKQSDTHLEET

## NC(=O)COc1cc(OCc2cccc(-c3ccc4c(c3)OCCO4)c2Br)c(Cl)cc1CN1C[C@@H](O)C[C@H]1C(=O)O
  IC50: 0.182 µM

— ChEMBL document CHEMBL5728196, “Phenylate derivative, preparation method therefor, and pharmaceutical composition and uses thereof” (2021)
